{"source": "paper PMC7385131", "about": "“Mechanisms of activation and desensitization of full-length glycine receptor in lipid nanodiscs” (Nature Communications, 2020)", "molecules": {"B1": {"name": "full-length zebrafish glycine receptor α1 (GlyRα1) (receptor, UniProt O93430 25-444, looked up)", "chain": "ARKAASPMPPSEFLDKLMGKVSGYDARIRPNFKGPPVNVTCNIFINSFGSIAETTMDYRVNIFLRQQWNDPRLAYSEYPDDSLDLDPSMLDSIWKPDLFFANEKGANFHEVTTDNKLLRISKNGNVLYSIRITLVLACPMDLKNFPMDVQTCIMQLESFGYTMNDLIFEWDEKGAVQVADGLTLPQFILKEEKDLRYCTKHYNTGKFTCIEARFHLERQMGYYLIQMYIPSLLIVILSWVSFWINMDAAPARVGLGITTVLTMTTQSSGSRASLPKVSYVKAIDIWMAVCLLFVFSALLEYAAVNFIARQHKELLRFQRRRRHLKEDEAGDGRFSFAAYGMGPACLQAKDGMAIKGNNNNAPTSTNPPEKTVEEMRKLFISRAKRIDTVSRVAFPLVFLIFNIFYWITYKIIRSEDIHKQ", "modifications": "N-glycan at Asn62", "notes": "Glycine receptor subunit alpha-1, zebrafish, full-length gene, codon-optimized; residues numbered as in UniProt O93430; Homopentamer; the model begins at Pro31; No thrombin cleavage is told; also called full-length glycine α1 receptor; GlyR–Apo; source: Sf9 cells (baculovirus, pFastBac1), purified (TALON, Superose 6), reconstituted into asolectin nanodiscs with MSP1E3D1"}}, "key": {"[1]": {"molecular_target": "T1, zebrafish GlyRα1 (full-length glycine receptor α1) (Danio rerio, UniProt O93430)", "T1 construct": "gene glra1; homopentamer in asolectin/MSP1E3D1 nanodiscs", "T1 sequence (O93430 1-444)": "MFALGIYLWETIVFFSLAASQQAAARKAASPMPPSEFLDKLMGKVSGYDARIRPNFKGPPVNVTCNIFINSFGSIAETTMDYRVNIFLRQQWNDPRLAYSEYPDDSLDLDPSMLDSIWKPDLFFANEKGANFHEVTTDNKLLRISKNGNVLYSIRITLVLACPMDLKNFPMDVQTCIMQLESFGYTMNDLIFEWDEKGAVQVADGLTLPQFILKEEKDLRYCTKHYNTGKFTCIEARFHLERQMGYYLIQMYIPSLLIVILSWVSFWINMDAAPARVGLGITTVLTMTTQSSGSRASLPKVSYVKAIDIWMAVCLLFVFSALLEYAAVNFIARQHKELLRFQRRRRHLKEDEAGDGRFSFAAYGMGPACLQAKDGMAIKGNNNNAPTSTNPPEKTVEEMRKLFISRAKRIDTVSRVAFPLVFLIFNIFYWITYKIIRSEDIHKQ", "assay": "cryo-EM structure in lipid nanodiscs ([…] Å) with glycine; TEVC block in oocytes", "type": "binding"}, "[2]": {"molecular_target": "T1, zebrafish GlyRα1 (full-length glycine receptor α1)", "assay": "cryo-EM structure in lipid nanodiscs ([…] Å); TEVC in oocytes", "type": "binding"}, "[3]": {"molecular_target": "the molecule itself", "assay": "cryo-EM structure; GlyR in asolectin nanodiscs (MSP1E3D1), ~0.1 mg/ml, buffer A (200 mM NaCl, 20 mM HEPES pH 8.0); no ligand, 5 mM glycine, 5 mM glycine + 3 mM picrotoxin, 1 mM glycine + 0.5 uM ivermectin, or 0.1 mM glycine + 30 uM ivermectin; C5 symmetry imposed"}}}
{"molecule": "C=C(C)[C@@H]1[C@H]2OC(=O)[C@@H]1[C@]1(O)C[C@H]3OC34C(=O)O[C@H]2[C@@]41C.CC(C)(O)[C@@H]1[C@H]2OC(=O)[C@@H]1[C@]1(O)C[C@H]3OC34C(=O)O[C@H]2[C@@]41C", "note": "(stereo partly drawn) [PTX, picrotoxin]", "values": [{"measurement": "cryo-EM structure in lipid nanodiscs (3.51 Å) with glycine; TEVC block in oocyte", "setting": "[1]", "value": "an additional density was seen in the pore at the mid-level of M2 nestled between Gly2′ and Leu9′"}]}
{"molecule": "NCC(=O)O", "note": "[Gly, glycine]", "values": [{"measurement": "cryo-EM structure in lipid nanodiscs (3.47 Å); TEVC in oocytes", "setting": "[2]", "value": "3D reconstructions reveal an additional small density in the canonical neurotransmitter-binding pocket wedged at the subunit interface in the ECD"}]}
{"molecule": "B1", "values": [{"measurement": "stoichiometry N", "setting": "[3]", "value": 5}]}
